# In US12234237B2, “Folate salts” (priority 2018, dated 2025):
# Assay: Solubility of the folate salt in organic (apolar) solvents at 20° C.
# Details: based on total weight of the solution
# Description: Solubility has been determined at 20° C. Apolar solvents or mixtures thereof are for instance glycerol, methanol, ethanol, 1-propanol, 2-propanol and dimethylsulfoxid (DMSO). Apolar solvents are understood as dry solvents, that is without any water content. Apolar solvents may be pure solvents, comprising only one type of apolar solvent or it may be a mixture of at least two of the aforementioned apolar solvents. Polarity is in comparison to the polarity of water.
# A high degree of crystallinity means that the crystalline content of the folate salt is higher than 40% based on the total amount of the folate salt.
SMILES,Solubility in 1-Propanol [% w/w],Solubility in DMSO [% w/w],Solubility in Ethanol [% w/w],Solubility in Glycerol [% w/w],Solubility in Methanol [% w/w]
"CN1c2c(nc(N)[nH]c2=O)NC[C@@H]1CNc1ccc(C(=O)N[C@@H](CCC(=O)O)C(=O)O)cc1.CNCCO.CNCCO [L-MTHF di NMAE, 5-Methyl-(6S)-tetrahydrofolic acid di N-methylaminoethanol salt]",0.1,3.5,0.2,16.7,3.6
"CN(C)CCO.CN1c2c(nc(N)[nH]c2=O)NC[C@@H]1CNc1ccc(C(=O)N[C@@H](CCC(=O)O)C(=O)O)cc1 [L-MTHF mono deanol, 5-Methyl-(6S)-tetrahydrofolic Acid Mono 2-Dimethylaminoethanol Salt]",0.2,24.8,0.2,10.0,2.5
"CC(C)(N)CO.CC(C)(N)CO.CN1c2c(nc(N)[nH]c2=O)NC[C@@H]1CNc1ccc(C(=O)N[C@@H](CCC(=O)O)C(=O)O)cc1 [L-MTHF di AMP, 5-Methyl-(6S)-tetrahydrofolic acid di 2-Amino-2-methyl propanol salt]",0.1,23.1,0.1,16.7,11.2
